From PMC11915375 (ACS Infectious Diseases, 2025)
Like-named read-outs stand apart in the source and are kept apart here.

How the values were obtained:
[1] = system: Leishmania major amastigotes; details: read-out: L. maj EC50; 12a, 12b previously reported compounds; cited from earlier work
T. cruzi = details: read-out: T. cruzi EC50; different host cell line (NIH3T3), assay run at NYU; cited from earlier work
T. brucei [2] = details: read-out: T. brucei EC50; assay run at NYU; cited from earlier work
[3] = system: Leishmania major amastigotes; test: Leishmania major amastigote assay; assay type: cell-based; details: Leishmania major, read-out: L. maj EC50
T. brucei [4] = test: T. brucei proliferation inhibition assay; assay type: cell-based, Trypanosoma brucei; details: Trypanosoma brucei, read-out: T. brucei EC50 ± S.D.
T. cruzi CA-I/72 = test: T. cruzi in vitro assay, C2C12 host cell; assay type: cell-based, Trypanosoma cruzi; details: Trypanosoma cruzi, C2C12, read-out: T. cruzi EC50
S. mansoni adult worms = test: S. mansoni adult worm phenotypic assay; assay type: cell-based, Schistosoma mansoni; details: scale 0-4

**Q.** For `CN1CCN(S(=O)(=O)c2ccc(-c3ccc4nncc(Nc5ccc(OCc6cccc(F)c6)c(Cl)c5)c4c3)cc2)CC1` [Compound 12a, N-(3-Chloro-4-((3-fluorobenzyl)oxy)phenyl)-6-(4-((4-methylpiperazin-1-yl)sulfonyl)phenyl)cinnolin-4-amine], which EC50 [1] is on record?
**A.** 1900 nM

**Q.** What about the EC50 (T. cruzi) of the same compound?
**A.** > 50000 nM

**Q.** What about the EC50 (T. brucei [2]) of the same compound?
**A.** 980 nM

**Q.** Which results are given for `CN1CCN(S(=O)(=O)c2ccc(-c3ccc4c(Nc5ccc(OCc6cccc(F)c6)c(Cl)c5)cnnc4c3)cc2)CC1` [Compound 12b, N-(3-Chloro-4-((3-fluorobenzyl)oxy)phenyl)-7-(4-((4-methylpiperazin-1-yl)sulfonyl)phenyl)cinnolin-4-amine]?
**A.** EC50 [1]: 2000 nM; EC50 (T. cruzi): 3100 nM; EC50 (T. brucei [2]): 1000 nM

**Q.** What does the source list for `COc1ccc(Nc2cnnc3cc(-c4ccc(S(=O)(=O)N5CCN(C)CC5)cc4)ccc23)cc1Cl` [Compound 17b, N-(3-Chloro-4-methoxyphenyl)-7-(4-((4-methylpiperazin-1-yl)sulfonyl)phenyl)cinnolin-4-amine]?
**A.** EC50 [3]: > 1900 nM; EC50 (T. brucei [4]): 8300 ± 350 nM; EC50 (T. cruzi CA-I/72): > 10000 nM; Adult severity score (10 µM) 5 h (S. mansoni adult worms): 4
